The target in experiment [1] is T1, ABL1-eGFP (CRK substrate) (Homo sapiens, UniProt P00519).
T1 construct: The ABL1 amino terminus was amplified from AblWT1-531 (gift of Dr. John Kuriyan); made in house; host or cells: Sf9 insect cells (baculovirus, pFastBac1)
The experiment can be described thus: In vitro kinase assay for direct ABL inhibitors. It is filed as biochemical. Conditions: 10 μM test compound, 0.5 nM ABL-eGFP, 2 μM CRK, 30 minutes at 30°C, anti-phosphotyrosine immunoblot. As to the method:
To identify these direct ABL kinase inhibitors, we screened the compounds using an in vitro kinase assay. Purified ABL1-eGFP was incubated with CRK, a well-characterized substrate, in kinase buffer containing ATP.
0.5 nM purified ABL-eGFP was mixed with 2 μM CRK and 10 μM test compound and incubated in kinase buffer for 30 minutes at 30°C. Samples were analyzed by immunoblot using anti-phosphotyrosine. All the hits were screened, and a representative immunoblot is shown here.
The kinase assay to identify direct ABL kinase inhibitors from UCLA MSSR and TSRI hits was performed as described in PubChem BioAssay AID 624303 (https://pubchem.ncbi.nlm.nih.gov/assay/assay.cgi?aid=624303). Purified His6-CrkII was expressed and purified as previously described.
(In general: In western blotting, separated proteins are transferred to a membrane and probed.)

For the next experiment, the system named is native ABL1. Set-up: method as in PMID 16415863, PMID 20072125. The conditions noted are these: cited from earlier work.
The subject of experiment [2] is MAPK1/3 phosphorylation in K562 cells. Briefly: pMAPK in K562 (immunoblot pMAPK1/3 / MAPK1/3). It is filed as cell-based, human. Conditions: for %inhibition of MAPK1/3 phosphorylation (pMAPK/MAPK ratio): 10 μM, 4 hours at 37°C, vs DMSO control, six biological replicates. As to the method: […] Each compound was tested with six biological replicates. Band intensity was quantified using LI-COR Odyssey, and the ratio of pMAPK/MAPK signal intensity is graphed for each compound and its DMSO control. Compounds are identified by their PubChem CID number.
Membranes were scanned and signal intensity quantified using a Li-Cor Odyssey scanner. To quantify RIN1 expression, signal intensities were first normalized to the housekeeping gene, tubulin. Phospho-MAPK1/3 signal intensities were normalized to total MAPK1/3. Changes in protein expression or phosphorylation were calculated as fold-change compared to control vector.
K562 with vector or RIN1 overexpression lentivirus were previously described. To analyze MAPK1 phosphorylation, confluent K562 cells were lysed in NP-40 buffer and immunoblotted. […] Cells from each well were harvested, lysed in 400 µL NP-40 and immunoblotted.
To test each compound, 5x10^5 K562 cells were plated on a 10 cm tissue culture plate and incubated for 3 days. Cells were harvested and the volume brought to 12 mLs with fresh medium. 1 mL of the cells was distributed into each well of a 12-well tissue culture plate. In 6 of the wells, 10 µL of 1 mM compound was added per well. 10 µL of DMSO was added to the remaining wells and mixed by pipetting up and down. Cells were incubated at 37°C and 5% CO2 for 4 hours. After incubation, cells were harvested from each well, lysed in 150 µL of RIPA buffer and analyzed as above.

Another experiment concerns K562 cells. The experiment can be described thus: K562 proliferation assay (MTS). The class given is cell-based, human. The conditions noted are these: dose-response 3.125-100 μM, 48 hours, triplicate. As for the experimental part:
K562 cells were plated 3x10^4 cells/well in 96-well plates. Cells were treated with DMSO or test compound in dose-response (100, 50, 25, 12.5, 6.25, 3.125 μM) to a final DMSO concentration of 1%. After 48 hours of incubation at 37°C, cell proliferation was assessed by MTS assay (Promega CellTiter 96 AQueous One Solution) according to the manufacturer’s protocol. Absorbance at 490nm was read on a PerkinElmer Victor3 plate reader. Experiments were performed in triplicate.
K562 cells were treated with DMSO or test compound in dose-response. After 48 hours of incubation at 37°C, cell proliferation was assessed by MTS assay. Growth in the presence of test compound was normalized to DMSO-treated K562 cells and results are presented as % of growth relative to control. Experiments were performed in triplicate. (PDF) Click here for additional data file.

The target of experiment [3] is T2, RIN1::ABL1 interaction (RIN1-SBP / ABL1-eGFP) (Homo sapiens, UniProt P00519+Q13671).
T2 construct: The ABL1 amino terminus was amplified from AblWT1-531 (gift of Dr. John Kuriyan); TEV site-ProtA-Flag (C, cleaved yes); made in house; host or cells: Sf9 insect cells (baculovirus, pFastBac1)
The experiment can be described thus: TR-FRET assay of RIN1::ABL binding. Conditions: for IC50: 21 hits selected for cell-based assay, concentration-response curves in triplicate. As to the method:
To measure binding between purified RIN1 and ABL proteins we designed a quantitative TR-FRET based assay.
The assay readout was calculated as a ratio of donor and acceptor emissions, a measurement independent of donor and acceptor concentrations that allows for reliable comparison across assays. Assay components were mixed in kinase buffer and incubated for one hour at room temperature to allow for RIN1-Y^36 phosphorylation by ABL1 and subsequent formation of a stable divalent interaction between these proteins. Each multi-well assay plate included negative control samples (streptavidin-terbium, ABL-eGFP and ATP without RIN1-SBP). […]
(In TR-FRET formats the signal depends on donor and acceptor labels being close together.)

Where [4] appears, read: S2 Table, TR-FRET assay, maximal inhibition, read-out: Max response (%).

Like-named read-outs stand apart in the source and are kept apart here.

We go through nine molecules from article PMC4374917, “Identification of Small Molecules that Disrupt Signaling between ABL and Its Positive Regulator RIN1” (PLoS ONE, 2015).

T2 sequence (P00519 1-531 isoform P00519-2): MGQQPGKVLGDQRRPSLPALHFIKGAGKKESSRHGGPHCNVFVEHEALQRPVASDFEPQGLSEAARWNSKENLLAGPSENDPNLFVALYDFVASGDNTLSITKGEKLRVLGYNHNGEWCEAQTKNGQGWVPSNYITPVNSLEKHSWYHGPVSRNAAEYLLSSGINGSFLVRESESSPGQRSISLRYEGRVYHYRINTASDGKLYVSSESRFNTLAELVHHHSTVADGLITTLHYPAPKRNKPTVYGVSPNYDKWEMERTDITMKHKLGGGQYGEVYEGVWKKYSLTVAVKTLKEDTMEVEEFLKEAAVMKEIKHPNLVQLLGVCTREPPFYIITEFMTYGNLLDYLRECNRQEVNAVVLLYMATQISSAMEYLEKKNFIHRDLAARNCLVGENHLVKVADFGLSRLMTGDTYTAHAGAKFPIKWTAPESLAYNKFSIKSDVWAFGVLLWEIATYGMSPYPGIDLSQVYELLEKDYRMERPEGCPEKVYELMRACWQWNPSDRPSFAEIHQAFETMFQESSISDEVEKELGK
T2 sequence (Q13671 whole entry): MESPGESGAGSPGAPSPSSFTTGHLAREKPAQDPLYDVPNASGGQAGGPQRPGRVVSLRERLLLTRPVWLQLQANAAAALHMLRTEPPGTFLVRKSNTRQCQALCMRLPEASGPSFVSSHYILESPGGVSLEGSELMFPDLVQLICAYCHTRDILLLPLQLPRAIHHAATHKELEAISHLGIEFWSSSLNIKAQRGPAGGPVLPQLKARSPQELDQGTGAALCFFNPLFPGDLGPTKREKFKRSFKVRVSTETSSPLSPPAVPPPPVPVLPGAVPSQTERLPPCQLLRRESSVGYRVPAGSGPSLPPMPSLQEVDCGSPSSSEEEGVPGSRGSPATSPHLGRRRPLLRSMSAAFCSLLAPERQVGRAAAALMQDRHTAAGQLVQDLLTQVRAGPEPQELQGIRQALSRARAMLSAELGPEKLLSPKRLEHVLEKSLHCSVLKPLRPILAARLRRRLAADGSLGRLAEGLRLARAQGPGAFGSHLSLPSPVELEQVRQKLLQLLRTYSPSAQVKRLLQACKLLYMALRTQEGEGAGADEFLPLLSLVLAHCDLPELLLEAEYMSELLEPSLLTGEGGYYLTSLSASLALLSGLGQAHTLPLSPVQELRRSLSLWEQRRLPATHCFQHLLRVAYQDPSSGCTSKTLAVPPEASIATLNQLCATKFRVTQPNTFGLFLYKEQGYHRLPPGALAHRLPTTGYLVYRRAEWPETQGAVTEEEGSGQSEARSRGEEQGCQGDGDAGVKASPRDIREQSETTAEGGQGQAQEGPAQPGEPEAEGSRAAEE
T1 sequence (P00519 1-531 isoform P00519-2): as the sequence (P00519 1-531 isoform P00519-2) above

As to `COc1ccc(CCNc2cc(=O)nc(N)[nH]2)cc1` [CID 1532134, 2-amino-6-[2-(4-methoxyphenyl)ethylamino]-1H-pyrimidin-4-one], the “ABL kinase activity: CRK and ABL phosphorylation” value in experiment [1] is recorded as “no activity”.
On to `NC(=O)c1cccc(-c2cc(Nc3ccc(OC(F)(F)F)cc3)ncn2)c1` [GNF-2], for which the “activity against native ABL1” value with native ABL1 is “no activity”.
Broadly, the IC50 is the concentration that gives 50% inhibition. Take `COc1cccc(CSc2nnc(CSc3nc4nc(C)cc(C)n4n3)s2)c1` [compound 1818178]: in experiment [2], the “%inhibition of MAPK1/3 phosphorylation (pMAPK/MAPK ratio)” value (shortened to “%inhibition … (pMAPK/MAPK ratio)”) was 25 ± 20%. In the experiment on K562 cells, the “K562 proliferation (% growth relative to DMSO control)” value is “decrease K562 proliferation”. Besides, the IC50 in experiment [3] (S2 Table) came out at 9570 nM. Also, the Emax in experiment [3] (setting [4]) came out at 95.7%.
Consider `CN(C(=O)c1ccc(NC(=O)Cc2ccc(NC(=O)C3CCN(C(=O)c4ccccc4)CC3)cc2)cc1)C1CC1` [compound 44142745], for which the “%inhibition … (pMAPK/MAPK ratio)” value in experiment [2] is given as 52 ± 47%. Also, the “K562 proliferation (% growth relative to DMSO control)” value in the experiment with K562 cells is “decrease K562 proliferation”. Besides, the IC50 in experiment [3] (S2 Table) is 2530 nM. Moreover, the Emax is 86.2% in experiment [3] (setting [4]) and 89.1% in experiment [3] (S4 Table, N-acyl piperidine-4-carboxamide series SAR, RIN1-ABL dose-response curve, read-out: Max Response (%)).
Turning to `CN(C(=O)c1ccc(NC(=O)Cc2ccc(NC(=O)C3CCN(C(=O)c4ccc(F)cc4)CC3)cc2)cc1)C1CC1` [compound 56844185], the “%inhibition … (pMAPK/MAPK ratio)” value in experiment [2] is 57 ± 13%. Moreover, the “K562 proliferation (% growth relative to DMSO control)” value in the experiment on K562 cells is “decrease K562 proliferation”. In experiment [3] (S2 Table), this molecule registered an IC50 of 1060 nM. For the same molecule, the Emax in experiment [3] (setting [4]) is 85.2%.
Regarding `COc1ccc(C(=O)N2CCC(C(=O)Nc3ccc(CC(=O)Nc4ccc(C(=O)N(C)C5CC5)cc4)cc3)CC2)cc1` [compound 56844186], in experiment [2], the “%inhibition … (pMAPK/MAPK ratio)” value is given as 75 ± 33%. In addition, in the experiment with K562 cells, the “K562 proliferation (% growth relative to DMSO control)” value is “decrease K562 proliferation”. This molecule returned an IC50 in experiment [3] (S2 Table) of 3670 nM. The Emax in experiment [3] (setting [4]) is 84.8%.
Take `CN(C(=O)c1ccc(NC(=O)Cc2ccc(NC(=O)C3CCN(C(=O)c4cccc(F)c4)CC3)cc2)cc1)C1CC1` [compound 56844188]: the “%inhibition … (pMAPK/MAPK ratio)” value in experiment [2] was found to be 75 ± 31%. Also, in the experiment on K562 cells, the “K562 proliferation (% growth relative to DMSO control)” value was “decrease K562 proliferation”. In experiment [3] (S2 Table), this molecule gave a 50% inhibitory concentration (IC50) of 1350 nM. In addition, the Emax in experiment [3] (setting [4]) came out at 86.8%.
Turning to `Cc1ccc(NC(=O)c2ccc(CN3CCN(C)CC3)cc2)cc1Nc1nccc(-c2cccnc2)n1` [imatinib, reference compound], the MAPK1/3 phosphorylation signal result in experiment [2] (1 μM imatinib, 1 and 4 hours at 37°C) is “rapidly decreased”.
For the molecule `O=C(O[C@@H]1Cc2c(O)cc(O)cc2O[C@@H]1c1cc(O)c(=O)c2c(O)c(O)cc([C@H]3Oc4cc(O)cc(O)c4C[C@H]3OC(=O)c3cc(O)c(O)c(O)c3)c2c1)c1cc(O)c(O)c(O)c1` [theaflavin-3,3’-digallate], in experiment [1], the “ABL kinase activity: CRK and ABL phosphorylation” value is given as “directly inhibits ABL trans-phosphorylation of CRK as well as ABL”. For the same molecule, the “Activity in the TR-FRET screening assay (FRET ratio)” value in experiment [3] (primary screen) is on record as “decrease the FRET ratio”.
